Experimental findings from ChEMBL document CHEMBL1221363, “Cytotoxicity of new pyrazino[1,2-b]isoquinoline and 6,15-iminoisoquino[3,2-b]3-benzazocine compounds” (2010) are described below.

What all share (assay type): functional
The test system of one experiment is HT-29. Description: Cytotoxicity against human HT-29 cells after 48 hrs by SRB assay. Particulars: HT-29, 48 h. (In general: Sulforhodamine B stains cellular protein and so reports cell mass.)
Another experiment relates to MDA-MB-231. The experiment in a line: Cytotoxicity against human MDA-MB-231 cells after 48 hrs by SRB assay. The following applies: MDA-MB-231, 48 h; for CC50: read-out: LC50 (the source's name).
In a further experiment the test system is A549. The experiment in a line: Cytotoxicity against human A549 cells after 48 hrs by SRB assay. Particulars: A549, 48 h.

As to `CCCN1CC(=O)N2[C@@H](Cc3c(OC)c(C)c(OC)c(OC)c3[C@@H]2COCc2ccccc2)C1` (relative stereo), in the experiment on HT-29, the GI50 (usually the concentration that inhibits growth by half) was determined as 11.2 µM, the LC50 (commonly the concentration that kills 50% of the test population) was above 19 µM and the TGI (usually the concentration giving total growth inhibition) is above 19 µM. Besides, in the experiment on MDA-MB-231, the GI50 is 16.6 µM, the total growth inhibition concentration (TGI) is above 21.3 µM and the CC50 was above 21.3 µM. Moreover, in the experiment on A549, growth was halved (GI50) at 10 µM, the LC50 (concentration causing 50% net cell kill) was above 21.3 µM and the total growth inhibition concentration (TGI) is above 21.3 µM.

On to `COc1c(C)c(OC)c(OC)c2c1C[C@H]1[C@H]3c4ccccc4C[C@@H]([C@H](C#N)N1[C@H]2COC(=O)/C=C/c1cccc(C(F)(F)F)c1)N3C` (relative stereo), for which, in the experiment on HT-29, the concentration for 50% growth inhibition (GI50) came to 3.25 µM, the LC50 worked out at 6.5 µM and the TGI stood at 4.52 µM. Also, in the experiment with MDA-MB-231, halving of growth (GI50) required 2.47 µM, total growth inhibition (TGI) required 2.62 µM and the CC50 is 2.78 µM. In the experiment with A549, it took 2.32 µM to inhibit growth by half (GI50), the LC50 (concentration causing 50% net cell kill) was 3.86 µM and the TGI stood at 2.93 µM.

As for `COc1cc(C[C@@H]2NCC3=Cc4c(OC)c(C)c(OC)c(OC)c4[C@H](COC(=O)c4cccc5ccccc45)N3C2=O)c(OC)c(C)c1OC`, in the experiment on HT-29, the 50% growth inhibitory concentration (GI50) is 7.64 µM, the LC50 is above 14.1 µM and the TGI was above 14.1 µM. Also, in the experiment with MDA-MB-231, the 50% growth inhibitory concentration (GI50) was 8.79 µM, the TGI is above 14.6 µM and the CC50 is above 14.6 µM. In the experiment with A549, this molecule showed a GI50 of 2.78 µM, an LC50 (concentration causing 50% net cell kill) above 14.6 µM and a TGI above 14.6 µM.

`COc1c(C)c(OC)c(OC)c2c1C[C@H]1[C@@H](OC)N(C(=O)OC(C)C)[C@@H](Cc3ccccc3)C(=O)N1[C@H]2COCc1ccccc1`: in the experiment on HT-29, it took 11.3 µM to inhibit growth by half (GI50), the LC50 is above 18.8 µM and the TGI is above 18.8 µM. Besides, in the experiment on MDA-MB-231, the concentration for 50% growth inhibition (GI50) stood at 12.2 µM, the concentration for total growth inhibition (TGI) is above 15.8 µM and the CC50 was above 15.8 µM. For the same molecule, in the experiment on A549, the GI50 worked out at 11.1 µM, the LC50 (concentration causing 50% net cell kill) was above 15.8 µM and the TGI was above 15.8 µM.

In the experiment on HT-29, `COc1c(C)c(OC)c(OC)c2c1C[C@H]1CN(C(=O)OC(C)C)[C@@H](Cc3ccccc3)C(=O)N1[C@H]2COCc1ccccc1` came in with a GI50 of 16.3 µM, a 50% lethal concentration (LC50) above 16.3 µM and a TGI above 16.3 µM. Further, in the experiment on MDA-MB-231, the GI50 is above 16.6 µM, the TGI was above 16.6 µM and the CC50 is above 16.6 µM. In the experiment with A549, the concentration for 50% growth inhibition (GI50) is above 16.6 µM, the LC50 (concentration causing 50% net cell kill) was above 16.6 µM and the TGI is above 16.6 µM.

Regarding `COc1c(C)c(OC)c(OC)c2c1C[C@H]1[C@@H]3c4c(c(OC)c(C)c(OC)c4OC)C[C@H](C(=O)N1C2COC(=O)c1cccc2ccccc12)N3C` (relative stereo), in the experiment on HT-29, halving of growth (GI50) required 6.88 µM, the 50% lethal concentration (LC50) is above 14.6 µM and the concentration for total growth inhibition (TGI) was above 14.6 µM. In the experiment with MDA-MB-231, the GI50 is 7.46 µM, the TGI is above 14.4 µM and the CC50 is above 14.4 µM. In addition, in the experiment on A549, it took 6.17 µM to inhibit growth by half (GI50), the LC50 (concentration causing 50% net cell kill) is above 14.4 µM and the TGI was above 14.4 µM.

Turning to `COc1c(C)c(OC)c(OC)c2c1C[C@H]1[C@H](C#N)N3[C@@H](CO)c4c(c(OC)c(C)c(OC)c4OC)C[C@H]3[C@@H]2N1C` (relative stereo), in the experiment with HT-29, halving of growth (GI50) required 7.12 µM, the 50% lethal concentration (LC50) stood at 15.1 µM and net growth stopped (TGI) at 10.5 µM. In the experiment on MDA-MB-231, the concentration for 50% growth inhibition (GI50) came to 4.7 µM, the TGI was found to be 9.03 µM and the CC50 was 14.1 µM. In the experiment with A549, the GI50 came out at 3.43 µM, the LC50 (concentration causing 50% net cell kill) came to 13.2 µM and net growth stopped (TGI) at 8.13 µM.

Turning to `COc1c(C)c(OC)c(OC)c2c1C[C@H]1[C@@H](O)N(C(=O)OC(C)C)CC(=O)N1[C@H]2COCc1ccccc1`, the median lethal concentration (LC50) in the experiment on HT-29 was above 1.31 µM.

`COc1c(C)c(OC)c(OC)c2c1C[C@H]1CN(C(=O)OC(C)C)CC(=O)N1[C@H]2COCc1ccccc1`: in the experiment with HT-29, growth was halved (GI50) at 8.32 µM and net growth stopped (TGI) at 9.84 µM.
